Data taken from PubChem BioAssay (NCI).
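Each compound was tested at five concentrations against cells in 96-well plates for 48 hours. Here, GI50 denotes the concentration required for 50% inhibition of growth. The concentration for full growth arrest is given as TGI.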

Columns and labels:
Assay in all cases: inhibition of tumour cell growth, NCI panel, 48 h
OVCAR-8 ovarian = test system: OVCAR-8 ovarian
UACC-62 melanoma = test system: UACC-62 melanoma
HT29 colon = test system: HT29 colon
OVCAR-3 ovarian = test system: OVCAR-3 ovarian
BT-549 breast = test system: BT-549 breast
SNB-19 CNS = test system: SNB-19 CNS
SK-MEL-2 melanoma = test system: SK-MEL-2 melanoma
OVCAR-4 ovarian = test system: OVCAR-4 ovarian
SW-620 colon = test system: SW-620 colon
786-0 renal = test system: 786-0 renal
T-47D breast = test system: T-47D breast
PC-3 prostate = test system: PC-3 prostate
COLO 205 colon = test system: COLO 205 colon
HOP-92 NSCLC = test system: HOP-92 NSCLC
ACHN renal = test system: ACHN renal
KM12 colon = test system: KM12 colon
DU-145 prostate = test system: DU-145 prostate
SK-OV-3 ovarian = test system: SK-OV-3 ovarian
SNB-75 CNS = test system: SNB-75 CNS
RPMI-8226 leukemia = test system: RPMI-8226 leukemia
LOX IMVI melanoma = test system: LOX IMVI melanoma
HCT-116 colon = test system: HCT-116 colon
MOLT-4 leukemia = test system: MOLT-4 leukemia
MDA-MB-231 breast = test system: MDA-MB-231 breast
SF-295 CNS = test system: SF-295 CNS
NCI/ADR-RES ovarian = test system: NCI/ADR-RES ovarian
UACC-257 melanoma = test system: UACC-257 melanoma
HCT-15 colon = test system: HCT-15 colon
MDA-MB-435 = test system: MDA-MB-435
NCI-H460 lung = test system: NCI-H460 lung
SN12C renal = test system: SN12C renal
NCI-H226 lung = test system: NCI-H226 lung
HOP-62 NSCLC = test system: HOP-62 NSCLC
M14 melanoma = test system: M14 melanoma
HCC-2998 colon = test system: HCC-2998 colon
EKVX NSCLC = test system: EKVX NSCLC
SK-MEL-5 melanoma = test system: SK-MEL-5 melanoma
U251 CNS = test system: U251 CNS
SK-MEL-28 melanoma = test system: SK-MEL-28 melanoma
A498 renal = test system: A498 renal
OVCAR-5 ovarian = test system: OVCAR-5 ovarian
MDA-MB-468 breast = test system: MDA-MB-468 breast
NCI-H23 lung = test system: NCI-H23 lung
SF-539 CNS = test system: SF-539 CNS
IGROV1 ovarian = test system: IGROV1 ovarian
A549 NSCLC = test system: A549 NSCLC
NCI-H522 lung = test system: NCI-H522 lung
TK-10 renal = test system: TK-10 renal
UO-31 renal = test system: UO-31 renal
HS 578T breast = test system: HS 578T breast
MALME-3M melanoma = test system: MALME-3M melanoma
RXF 393 renal = test system: RXF 393 renal
CAKI-1 renal = test system: CAKI-1 renal
K-562 leukemia = test system: K-562 leukemia
MCF7 breast = test system: MCF7 breast
CCRF-CEM leukemia = test system: CCRF-CEM leukemia
SF-268 CNS = test system: SF-268 CNS
SR leukemia = test system: SR leukemia
HL-60(TB) leukemia = test system: HL-60(TB) leukemia

Question: `FC(F)(F)c1cc2c(Cl)ncnc2n1CCC1CCOCC1` was tested. Which GI50 (OVCAR-8 ovarian) did it give?
Answer: 2.44 µM

Question: What about the TGI (OVCAR-8 ovarian) of the same compound?
Answer: 7.33 µM

Question: What about the GI50 (UACC-62 melanoma) of the same compound?
Answer: 4.23 µM

Question: What about the TGI (UACC-62 melanoma) of the same compound?
Answer: 15.7 µM

Question: And the GI50 (HT29 colon)?
Answer: 13.9 µM

Question: What about the TGI (HT29 colon) of the same compound?
Answer: 44.2 µM

Question: And the GI50 (OVCAR-3 ovarian)?
Answer: 12.2 µM

Question: What about the TGI (OVCAR-3 ovarian) of the same compound?
Answer: 27.4 µM

Question: And the GI50 (BT-549 breast)?
Answer: 10.2 µM

Question: What about the TGI (BT-549 breast) of the same compound?
Answer: 22.6 µM

Question: What about the GI50 (SNB-19 CNS) of the same compound?
Answer: 5.21 µM

Question: And the TGI (SNB-19 CNS)?
Answer: 18.1 µM

Question: What about the GI50 (SK-MEL-2 melanoma) of the same compound?
Answer: 13.2 µM

Question: And the TGI (SK-MEL-2 melanoma)?
Answer: 28.2 µM

Question: What about the GI50 (OVCAR-4 ovarian) of the same compound?
Answer: 18.5 µM

Question: And the TGI (OVCAR-4 ovarian)?
Answer: 50.1 µM

Question: And the GI50 (SW-620 colon)?
Answer: 11.9 µM

Question: What about the TGI (SW-620 colon) of the same compound?
Answer: 28.5 µM

Question: What about the GI50 (786-0 renal) of the same compound?
Answer: 16.1 µM

Question: What about the TGI (786-0 renal) of the same compound?
Answer: 32.4 µM

Question: And the GI50 (T-47D breast)?
Answer: 20.2 µM

Question: And the TGI (T-47D breast)?
Answer: 59.6 µM

Question: What about the GI50 (PC-3 prostate) of the same compound?
Answer: 2.97 µM

Question: What about the TGI (PC-3 prostate) of the same compound?
Answer: 11.3 µM

Question: And the GI50 (COLO 205 colon)?
Answer: 16.4 µM

Question: And the TGI (COLO 205 colon)?
Answer: 37.2 µM

Question: And the GI50 (HOP-92 NSCLC)?
Answer: 13.9 µM

Question: And the TGI (HOP-92 NSCLC)?
Answer: 32.3 µM

Question: And the GI50 (ACHN renal)?
Answer: 11.1 µM

Question: And the TGI (ACHN renal)?
Answer: 26 µM

Question: What about the GI50 (KM12 colon) of the same compound?
Answer: 16.3 µM

Question: What about the TGI (KM12 colon) of the same compound?
Answer: 33.9 µM

Question: And the GI50 (DU-145 prostate)?
Answer: 4.35 µM

Question: What about the TGI (DU-145 prostate) of the same compound?
Answer: 15.1 µM

Question: What about the GI50 (SK-OV-3 ovarian) of the same compound?
Answer: 17.3 µM

Question: And the TGI (SK-OV-3 ovarian)?
Answer: 33.3 µM

Question: What about the GI50 (SNB-75 CNS) of the same compound?
Answer: 3.09 µM

Question: What about the TGI (SNB-75 CNS) of the same compound?
Answer: 15.1 µM

Question: And the GI50 (RPMI-8226 leukemia)?
Answer: 14.6 µM

Question: And the TGI (RPMI-8226 leukemia)?
Answer: 41.4 µM

Question: And the GI50 (LOX IMVI melanoma)?
Answer: 1.63 µM

Question: What about the TGI (LOX IMVI melanoma) of the same compound?
Answer: 2.99 µM

Question: What about the GI50 (HCT-116 colon) of the same compound?
Answer: 2.36 µM

Question: What about the TGI (HCT-116 colon) of the same compound?
Answer: 6.48 µM

Question: What about the GI50 (MOLT-4 leukemia) of the same compound?
Answer: 2.35 µM

Question: What about the TGI (MOLT-4 leukemia) of the same compound?
Answer: 5.45 µM

Question: And the GI50 (MDA-MB-231 breast)?
Answer: 3.9 µM

Question: And the TGI (MDA-MB-231 breast)?
Answer: 14 µM

Question: What about the GI50 (SF-295 CNS) of the same compound?
Answer: 14 µM

Question: And the TGI (SF-295 CNS)?
Answer: 27.9 µM

Question: And the GI50 (NCI/ADR-RES ovarian)?
Answer: 17 µM

Question: And the TGI (NCI/ADR-RES ovarian)?
Answer: 35.1 µM

Question: What about the GI50 (UACC-257 melanoma) of the same compound?
Answer: 3.56 µM

Question: And the TGI (UACC-257 melanoma)?
Answer: 15.7 µM

Question: And the GI50 (HCT-15 colon)?
Answer: 2.93 µM

Question: And the TGI (HCT-15 colon)?
Answer: 11 µM

Question: What about the GI50 (MDA-MB-435) of the same compound?
Answer: 5.01 µM

Question: What about the TGI (MDA-MB-435) of the same compound?
Answer: 18.3 µM

Question: What about the GI50 (NCI-H460 lung) of the same compound?
Answer: 2.42 µM

Question: What about the TGI (NCI-H460 lung) of the same compound?
Answer: 5.66 µM

Question: What about the GI50 (SN12C renal) of the same compound?
Answer: 6.67 µM

Question: What about the TGI (SN12C renal) of the same compound?
Answer: 19.8 µM

Question: And the GI50 (NCI-H226 lung)?
Answer: 13.9 µM

Question: What about the TGI (NCI-H226 lung) of the same compound?
Answer: 28.5 µM

Question: And the GI50 (HOP-62 NSCLC)?
Answer: 17 µM

Question: And the TGI (HOP-62 NSCLC)?
Answer: 35.1 µM

Question: What about the GI50 (M14 melanoma) of the same compound?
Answer: 3.76 µM

Question: What about the TGI (M14 melanoma) of the same compound?
Answer: 16.2 µM

Question: What about the GI50 (HCC-2998 colon) of the same compound?
Answer: 1.63 µM

Question: And the TGI (HCC-2998 colon)?
Answer: 3.03 µM

Question: And the GI50 (EKVX NSCLC)?
Answer: 12.6 µM

Question: And the TGI (EKVX NSCLC)?
Answer: 28.5 µM

Question: What about the GI50 (SK-MEL-5 melanoma) of the same compound?
Answer: 2.79 µM

Question: What about the TGI (SK-MEL-5 melanoma) of the same compound?
Answer: 9.23 µM

Question: What about the GI50 (U251 CNS) of the same compound?
Answer: 2.07 µM

Question: What about the TGI (U251 CNS) of the same compound?
Answer: 5.58 µM

Question: What about the GI50 (SK-MEL-28 melanoma) of the same compound?
Answer: 2.6 µM

Question: What about the TGI (SK-MEL-28 melanoma) of the same compound?
Answer: 6 µM

Question: And the GI50 (A498 renal)?
Answer: 16.2 µM

Question: And the TGI (A498 renal)?
Answer: 29.9 µM

Question: What about the GI50 (OVCAR-5 ovarian) of the same compound?
Answer: 24.1 µM

Question: And the TGI (OVCAR-5 ovarian)?
Answer: 81.9 µM

Question: And the GI50 (MDA-MB-468 breast)?
Answer: 1.66 µM

Question: And the TGI (MDA-MB-468 breast)?
Answer: 3.44 µM

Question: What about the GI50 (NCI-H23 lung) of the same compound?
Answer: 2.59 µM

Question: What about the TGI (NCI-H23 lung) of the same compound?
Answer: 10 µM

Question: What about the GI50 (SF-539 CNS) of the same compound?
Answer: 13.6 µM

Question: What about the TGI (SF-539 CNS) of the same compound?
Answer: 27.7 µM

Question: And the GI50 (IGROV1 ovarian)?
Answer: 1.78 µM

Question: What about the TGI (IGROV1 ovarian) of the same compound?
Answer: 3.49 µM

Question: What about the GI50 (A549 NSCLC) of the same compound?
Answer: 22 µM

Question: And the TGI (A549 NSCLC)?
Answer: 56.9 µM

Question: What about the GI50 (NCI-H522 lung) of the same compound?
Answer: 1.68 µM

Question: What about the TGI (NCI-H522 lung) of the same compound?
Answer: 3.68 µM

Question: And the GI50 (TK-10 renal)?
Answer: 17.4 µM

Question: And the TGI (TK-10 renal)?
Answer: 36.7 µM

Question: And the GI50 (UO-31 renal)?
Answer: 1.79 µM

Question: And the TGI (UO-31 renal)?
Answer: 3.79 µM

Question: And the GI50 (HS 578T breast)?
Answer: 12.1 µM

Question: What about the TGI (HS 578T breast) of the same compound?
Answer: 45.5 µM

Question: And the GI50 (MALME-3M melanoma)?
Answer: 15.2 µM

Question: And the TGI (MALME-3M melanoma)?
Answer: 29.2 µM

Question: What about the GI50 (RXF 393 renal) of the same compound?
Answer: 8.75 µM

Question: What about the TGI (RXF 393 renal) of the same compound?
Answer: 22.1 µM

Question: What about the GI50 (CAKI-1 renal) of the same compound?
Answer: 14.6 µM

Question: What about the TGI (CAKI-1 renal) of the same compound?
Answer: 30.2 µM

Question: What about the GI50 (K-562 leukemia) of the same compound?
Answer: 2.84 µM

Question: And the TGI (K-562 leukemia)?
Answer: 8.66 µM

Question: What about the GI50 (MCF7 breast) of the same compound?
Answer: 11.5 µM

Question: What about the TGI (MCF7 breast) of the same compound?
Answer: 36.4 µM

Question: And the GI50 (CCRF-CEM leukemia)?
Answer: 1.41 µM

Question: And the TGI (CCRF-CEM leukemia)?
Answer: 4.56 µM

Question: And the GI50 (SF-268 CNS)?
Answer: 2.45 µM

Question: What about the TGI (SF-268 CNS) of the same compound?
Answer: 7.28 µM

Question: And the GI50 (SR leukemia)?
Answer: 2.05 µM

Question: What about the TGI (SR leukemia) of the same compound?
Answer: 5.32 µM

Question: What about the GI50 (HL-60(TB) leukemia) of the same compound?
Answer: 2.21 µM

Question: What about the TGI (HL-60(TB) leukemia) of the same compound?
Answer: 5.07 µM
